Laboratory results published in patent publication US20050176804A1, “Method and material for free radical scavenging in human tissue” (priority 2003, published 2005).

Assays:
Cu/ZnSOD = Cu/ZnSOD gene expression by Western blotting; format: cell-based; conditions: 15 and 30 μM; human skin fibroblasts
Method: (§1) The antioxidant effects of indoleacetyl phenylalanine was also tested with respect to the production of antioxidant enzymes by means of differential gene expression in human skin fibroblasts. The experiment was conducted with respect to gene expression related to two major defense enzymes, Superoxide Dismutase (SOD) and catalase. […] Gene expression for both enzymes was stimulated at indoleacetyl phenylalanine concentrations of 15 and 30 μM.

skin fibroblasts [1] = assay: Cell viability of skin fibroblasts during ROS test; format: cell-based, human
Method: (§2) Positive results were obtained with fibroblasts incubated in both serum-containing and serum-free media (serum proteins, e.g., albumin, can act as antioxidants and skew test results).

[2] = test system: cultured human skin fibroblasts; assay: RNS suppression, total nitrate plus nitrite (Nox) generation, Greiss assay; format: cell-based; conditions: 60 μg/ml
Method: In addition to ROS activity, indoleacetyl phenylalanine was also tested against radical nitrogen species (RNS) in cultured human skin fibroblasts. To estimate suppression of RNS, total nitrate plus nitrite (Nox) generation was measured using the Greiss assay method. At a concentration of 60 μg/ml, indoleacetyl phenylalanine decreased RNS generation by 33% as compared to an untreated control.

[3] = test system: nitric oxide synthase (iNOS); assay: iNOS suppression, native and activated states; format: cell-based; conditions: 3-12 μM
Excerpt: Following previous leads on indoleacetyl phenylalanine's finding as a potent anti-free radical substance, additional experimental evidence was sought to strengthen the earlier findings. Focus at this time was placed on nitric oxide synthase (iNOS), which is the key enzyme for generating a destructive oxidant, nitric oxide. Since this enzyme existed in native and activated states, it was pertinent to check both the enzyme activities to ascertain the inhibitory action of indoleacetyl phenylalanine.

fibroblast COX-2 enzymes = target: T1, fibroblast COX-2 enzymes (Homo sapiens, UniProt P35354); assay: Inhibition of fibroblast COX-2 enzymes; format: cell-based
T1 construct: endogenous in cells
T1 sequence (P35354 18-604): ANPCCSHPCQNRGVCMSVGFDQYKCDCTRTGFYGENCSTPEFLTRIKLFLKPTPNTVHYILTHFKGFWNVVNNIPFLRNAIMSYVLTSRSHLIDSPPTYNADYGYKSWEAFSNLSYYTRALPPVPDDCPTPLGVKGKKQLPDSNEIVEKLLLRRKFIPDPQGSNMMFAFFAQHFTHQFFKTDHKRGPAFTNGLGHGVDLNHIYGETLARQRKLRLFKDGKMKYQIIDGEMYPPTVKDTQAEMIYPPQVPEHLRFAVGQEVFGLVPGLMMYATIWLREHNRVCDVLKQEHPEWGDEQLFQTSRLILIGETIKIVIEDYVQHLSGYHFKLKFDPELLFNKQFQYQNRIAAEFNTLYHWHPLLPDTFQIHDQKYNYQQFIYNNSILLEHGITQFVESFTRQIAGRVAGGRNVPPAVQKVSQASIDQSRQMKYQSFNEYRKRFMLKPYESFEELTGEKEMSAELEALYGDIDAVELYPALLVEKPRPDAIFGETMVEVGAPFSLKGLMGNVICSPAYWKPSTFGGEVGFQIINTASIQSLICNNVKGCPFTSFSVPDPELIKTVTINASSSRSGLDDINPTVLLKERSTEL

[4] = test system: human skin fibroblast cultures; assay: Total ROS generation in skin fibroblasts, DCFDA fluorescent probe; format: cell-based
Method: (§3) The anti-oxidative action of indoleacetyl phenylalanine was tested against reactive oxygen species (ROS) using human skin fibroblast cultures. Total ROS generation in skin fibroblasts was measured using the fluorescent dye dichlorofluorescin diacetate (DCFDA) as a probe. DCFDA readily diffuses through cell membranes and is enzymatically hydrolyzed by intracellular esterase to become non-fluorescent dichlorofluorescin (DCFH), which is then oxidized by reactive species (oxidants) to highly fluorescent […] (DCF). Increased antioxidant activity within a cell is marked by a reduction in the fluorescent DCF.
as §2

skin fibroblasts [5] = assay: t-butyl hydroperoxide (t-BHP) induced ROS activity; format: cell-based, human; conditions: serum-free media
Method: as §3

catalase = assay: Catalase gene expression by Western blotting; format: cell-based; conditions: 15 and 30 μM, particularly increased at 30 μM; human skin fibroblasts
Method: as §1

fibroblasts = assay: Cell proliferation / cell viability, MTT method; format: cell-based
Method: Furthermore, to investigate the effects of indole derivatives on cell proliferation as a biological marker, cell viability was assayed using the MTT method.

With `O=C(Cc1c[nH]c2ccccc12)N[C@@H](Cc1ccccc1)C(=O)O` [indoleacetyl phenylalanine] the “gene expression for production of Cu/ZnSOD (protein amount)” value (Cu/ZnSOD) was “increased gene expression”, the “effect on cell viability” value (skin fibroblasts [1]) was “without affecting cell viability” and the “decrease of RNS generation compared to untreated control” value [2] was 33%. For the same compound, the “suppression of iNOS, native state” value [3] was “suppressed iNOS”, the “suppression of iNOS gene expression activity, activated state” value ([3]; activated by 5 μM t-BHP) was “able to suppress iNOS gene expression activity” and the “anti-inflammatory effect, COX-2 inhibition” value (fibroblast COX-2 enzymes) was “inhibition of fibroblast COX-2 enzymes”. For the same compound, the “antioxidant activity toward ROS generation” value ([4]; 10% serum media, 15, 30, and 60 μM) was “significant antioxidant activity”, the “antioxidant activity toward ROS generation” value ([4]; serum-free media, 7.5, 15, and 30 μM) was “exhibited antioxidant activity” and the “antioxidant activity against t-BHP induced ROS activity” value (skin fibroblasts [5]) was “showed antioxidant activity”. The “gene expression for production of catalase (protein amount)” value (catalase) was “increased gene expression”, the “stimulation of cell proliferation compared to untreated controls” value (fibroblasts; MTT method) was 30% and the “lowest concentration giving dose-dependent fibroblast proliferation” value (fibroblasts; four-day incubation period) was 2 µM.
